Data from patent US20230033195A1, “METHODS AND COMPOSITIONS FOR IMPROVING COGNITIVE FUNCTION” (THE JOHNS HOPKINS UNIVERSITY, priority 2011, published 2023).

Assays:
[1] = test system: Age-Impaired (AI) Long-Evans rats; assay: Morris Water Maze (MWM) retention trial, spatial memory retention; type: in vivo, rat
Description: FIG. 2 depicts the effects of administering levetiracetam on the spatial memory retention of six aged-impaired rats (AI) in a Morris Water Maze (MWM) test. Three treatment conditions were employed: vehicle control, levetiracetam (5 mg/kg/day) and levetiracetam (10 mg/kg/day). The AI rats were trained for two consecutive days, with a one-time treatment prior to the training trials per day. 24 hours later, the AI rats were tested. The time the AI rats, 24 hours after treatment with the different conditions and two days of training, spent swimming in the target quadrant or the target annulus in a memory retention trial is used as a measure of spatial memory retention. The target quadrant refers to the quadrant of the maze (which is a circular pool) where the escape platform is placed during the training trials. The target annulus refers to the exact location of the escape platform during the training trials.
The MWM apparatus consists of a large, circular pool (diameter 1.83 m; height, 0.58 m) filled with water (27° C.) that is made opaque through the addition of non-toxic pigment or some other substance. In the typical "hidden platform" version of the test, rats are trained to find a camouflaged white escape platform (height, 34.5 cm) that is positioned in the center of one quadrant of the maze about 1.0 cm below the water surface. This platform can be retracted to the bottom of the tank or raised to its normal position from outside the maze during behavioral testing. The location of the platform remains constant from trial to trial. Because there are no local cues that mark the position of the platform, the rat's ability to locate it efficiently from any starting position at the perimeter of the pool depends on using information surrounding the maze. The maze is surrounded by black curtains to which white patterns are affixed to provide a configuration of spatial cues. A second platform (height 37.5 cm), with its surface painted black is elevated 2 cm above the water surface during cue training to control for factors unrelated to cognition. The behavior of a rat in the pool is recorded by a camera that is suspended 2.5 m above the center of the pool. The camera is connected to a video tracking system (HVS Image Advanced Tracker VP200) and a PC computer running HVS software developed by Richard Baker of HVS Image, Hampton, UK.
The MWM protocol is optimized for sensitivity to the effects of aging on cognition and for measures of reliable individual differences within the aged population of out-bred Long-Evans rats (Gallagher et al. Behav. Neurosci. 107:618-626, (1993)). […] At the completion of the protocol using the hidden platform, rats are assessed for cue learning using the visible platform. […]

[2] = test system: aMCI subjects; assay: explicit 3-alternative forced choice task; type: in vivo, human; details: 125 mg twice a day for two weeks, vs placebo, p = 0.039
Source text: Each bar represents the proportion of the subjects responses (old, similar, or new) when presented with a lure image.
There are various tests known in the art for assessing cognitive function in humans, for example and without limitation, the clinical global impression of change scale (CIBIC-plus scale); the Mini Mental State Exam (MMSE); the Neuropsychiatric Inventory (NPI); the Clinical Dementia Rating Scale (CDR); the Cambridge Neuropsychological Test Automated Battery (CANTAB); the Sandoz Clinical Assessment-Geriatric (SCAG), the Buschke Selective Reminding Test (Buschke and Fuld, 1974); the Verbal Paired Associates subtest; the Logical Memory subtest; the Visual Reproduction subtest of the Wechsler Memory Scale-Revised (WMS-R) (Wechsler, 1997); or the Benton Visual Retention Test. See Folstein et al., J Psychiatric Res 12: 189-98, (1975); Robbins et al., Dementia 5: 266-81, (1994); Rey, L'examen clinique en psychologie, (1964); Kluger et al., J Geriatr Psychiatry Neurol 12:168-79, (1999); Marquis et al., 2002 and Masur et al., 1994. Another example of a cognitive test in humans is the explicit 3-alternative forced choice task. […]
The activity of the subject's medial temporal lobe is measured by functional MRI during the subject's participation in an explicit 3-alternative forced choice task, where participants view novel, repeated and similar ("lure") stimuli. […]

Compound: CC[C@@H](C(N)=O)N1CCCC1=O [levetiracetam, (2S)-2-(2-oxopyrrolidin-1-yl) butanamide]
- performance (time in target quadrant) compared to vehicle ([1]; 5 mg/kg/day i.p., retention trial 24 h after training): did not significantly improve
- time spent in the target annulus ([1]; 10 mg/kg/day i.p., retention trial): effectivness of the 10 mg/kg/day levetiracetam treatment was also seen
- memory as compared to vehicle-treated controls (time in target quadrant) ([1]; 10 mg/kg/day i.p., retention trial 24 h after training): significantly improved memory
- time spent in the target quadrant, percentage of total swimming time ([1]; 10 mg/kg/day i.p., retention trial 24 h after two training days): approximately 35%
- performance in the explicit 3-alternative forced choice task (similar vs old responses to lures) [2]: improves significantly
